Results: patent publication US20100130457A1, “Phenothiazine Derivatives for Treatment of Asthma” (Immune Control, Inc., priority 2008, published 2010)
“Also recorded” adds a separate entry of the source. Like-named read-outs stand apart in the source and are kept apart here.

Legend:
human small airway = assay: Human precision-cut lung slices (PCLS), small airway contraction
Description: Human precision-cut lung slices (PCLS) permit evaluation of pharmacological responses of novel drug candidates applied directly to their target tissue.
Human precision-cut lung slices (PCLS, 250 μm thick) containing a small airway were contracted to carbachol, histamine and passively sensitization to induce airway closure±pre-incubation with ICI-735 (10 μM; 2 hours); FIG. 13. For example, human lung slices containing a small airway were incubated overnight with either negative control IgG (4 μg/mL) or positive control IgE (4 μg/mL). The slices were tested as follows: 1) IgG+anti-IgE; 2) IgE+anti-IgE; 3) IgE+Dexamethasone (1 μM)+anti-IgE; and 4) IgE+ICI-735 (10 μM) +anti-IgE. Dexamethasone and ICI-735 were pre-incubated 2 hours prior to anti-IgE; anti-IgE is used to crosslink antibodies and induce mast cell degranulation, which is believed to release histamine and cause airway contract. […]
Human lung tissue contains multiple cell types, including mast cells, that localize in the region of airway smooth muscle, and that increase in number in individuals with asthma. Cross-linking of Fcε;R1 receptors on surfaces of mast cells leads to release of granules that contain smooth muscle contractile agonists, including histamine and leukotrienes.
To test C-027 as a blocker of histamine-induced bronchoconstriction, lung slices were incubated for 2 hours with C-027, and small airway contraction was evaluated after addition of increasing concentrations of histamine.

MPR1-MDCK = MPR1-MDCK permeability, potential to cross the blood-brain barrier; format: in vitro ADME; settings: for % Recovery A-B / Papp A-B: A-B direction; for % Recovery B-A / Papp B-A: B-A direction; for Efflux: efflux ratio; for Brain Penetration Classification: from A-B Papp and efflux ratio
From the text: (§1) A criterion for selecting an agent for proceeding to clinical trials is whether the compound crosses the blood-brain barrier. […] Fluphenazine (ICI-01175) is used as a control compound that has the potential to cross the blood-brain barrier. Table 1 summarizes the results of the test compounds for their potential to cross the blood-brain barrier.

RPMI 8226 = assay: Inhibition of proliferation of RPMI 8226 cells; format: cell-based, human; settings: RPMI cells in vitro
From the text: The next set of experiments was designed to assess compounds that have low levels of brain penetration for the ability of the test compounds to inhibit cellular proliferation. An exemplary in vitro assay is to screen for the ability of the test compounds to inhibit proliferation of the B-cell neoplastic cell line RPMI 8226 (a plasmacytoma derived from a multiple myeloma patient (Matsuoka, et al., 1967, Proc. Soc. Exp. Biol. Med. 125: 1246-1250). However other cell line can be used such as, U266 (established from an IgE-secreting myeloma patient (Nilsson, et al., 1970, Clin. Exp. Immunol., 7: 477-489) and ARH77 (an EBV transformed plasma cell leukemia (Burk, et al., 1978, Cancer Res. 38: 2508-2513).
FIG. 1 is a graph depicting the effects on the test compounds on RPMI cell viability.

[1] = MPR1-MDCK permeability, potential to cross the blood-brain barrier; format: in vitro ADME; settings: dog, MDCK
From the text: as §1

SMILES | % Recovery A-B (MPR1-MDCK) | Papp A-B (MPR1-MDCK) | % Recovery B-A (MPR1-MDCK) | Papp B-A (MPR1-MDCK) | Efflux (MPR1-MDCK) | Brain Penetration Classification (MPR1-MDCK) | further results
C[N+](C)(C)CCOC(N)=O [Carbachol, reference compound] |  |  |  |  |  |  | bronchoconstriction (human small airway; 10^−8 to 10^−5 M, dose-dependent): up to 70%
C[C@@H]1C[C@H]2[C@@H]3CCC4=CC(=O)C=C[C@]4(C)[C@@]3(F)[C@@H](O)C[C@]2(C)[C@@]1(O)C(=O)CO [Dexamethasone, reference compound] |  |  |  |  |  |  | airway contraction to IgE/anti-IgE (passive sensitization, mast cell degranulation) (human small airway; ICI-735 10 μM, dexamethasone 1 μM, pre-incubated 2 hours): no effect
FC(F)(F)c1ccc2c(c1)N(CCCN1CCNCC1)c1ccccc1S2 [ICI-00685] | 17% | 0.66 ×10⁻⁶ cm/s | 15% | 4.47 ×10⁻⁶ cm/s | 6.8 | Low (A-B Papp > 3.0 and Efflux Ratio > 10: Low) | 
CN(C)S(=O)(=O)c1ccc2c(c1)N(CCCN1CCN(CCN)CC1)c1ccccc1S2 [ICI-00715] | 85% | 0.08 ×10⁻⁶ cm/s | 77% | 12.3 ×10⁻⁶ cm/s | 154 | Low (A-B Papp > 3.0 and Efflux Ratio > 10: Low) | ability to inhibit proliferation of RPMI cells (RPMI 8226): able to inhibit
CN(C)CCN1CCN(CCCN2c3ccccc3Sc3ccc(C(F)(F)F)cc32)CC1 [ICI-00738] | 15% | 1.06 ×10⁻⁶ cm/s | 40% | 3.33 ×10⁻⁶ cm/s | 3.1 | Low (A-B Papp > 3.0 and Efflux Ratio > 10: Low) | 
CNCC(=O)NCCN1CCN(CCCN2c3ccccc3Sc3ccc(C(F)(F)F)cc32)CC1 [ICI-00758] | 59% | 0.21 ×10⁻⁶ cm/s | 41% | 24.9 ×10⁻⁶ cm/s | 116 | Low (A-B Papp > 3.0 and Efflux Ratio > 10: Low) | 
NCCCN1CCN(CCCN2c3ccccc3Sc3ccc(C(F)(F)F)cc32)CC1 [ICI-00760] | 46% | <0.25 ×10⁻⁶ cm/s | 40% | 18.8 ×10⁻⁶ cm/s | >75 | Low (A-B Papp > 3.0 and Efflux Ratio > 10: Low) | 
NCC(N)C(=O)NCCN1CCN(CCCN2c3ccccc3Sc3ccc(C(F)(F)F)cc32)CC1 (stereo not drawn) [ICI-761] |  |  |  |  |  |  | ability to inhibit proliferation of RPMI cells (RPMI 8226): able to inhibit
NCC(=O)NCCCN1CCN(CCCN2c3ccccc3Sc3ccc(C(F)(F)F)cc32)CC1 [ICI-00822] | 61% | 0.13 ×10⁻⁶ cm/s | 22% | 15.7 ×10⁻⁶ cm/s | 119 | Low (A-B Papp > 3.0 and Efflux Ratio > 10: Low) | 
CNCC(=O)NCCCN1CCN(CCCN2c3ccccc3Sc3ccc(C(F)(F)F)cc32)CC1 [ICI-00823] | 57% | <0.24 ×10⁻⁶ cm/s | 46% | 19.4 ×10⁻⁶ cm/s | >80 | Low (A-B Papp > 3.0 and Efflux Ratio > 10: Low) | 
FC(F)(F)c1ccc2c(c1)N(CCCC1CCNCC1)c1ccccc1S2 [ICI-00824] | 11% | 1.77 ×10⁻⁶ cm/s | 21% | 13.8 ×10⁻⁶ cm/s | 7.8 | Low (A-B Papp > 3.0 and Efflux Ratio > 10: Low) | 
NCCN1CCC(CCCN2c3ccccc3Sc3ccc(C(F)(F)F)cc32)CC1 [ICI-00846] | 3% | <0.36 ×10⁻⁶ cm/s | 1% | <0.49 ×10⁻⁶ cm/s |  | Low (A-B Papp > 3.0 and Efflux Ratio > 10: Low) | 
NCCCN1CCC(CCCN2c3ccccc3Sc3ccc(C(F)(F)F)cc32)CC1 [ICI-00847] | 9% | 0.56 ×10⁻⁶ cm/s | 31% | 9.56 ×10⁻⁶ cm/s | 17 | Low (A-B Papp > 3.0 and Efflux Ratio > 10: Low) | ability to inhibit proliferation of RPMI cells (RPMI 8226; listed as ICI-847): able to inhibit; also recorded: active
NCC(=O)NCCN1CCC(CCCN2c3ccccc3Sc3ccc(C(F)(F)F)cc32)CC1 [ICI-00848] | 22% | 0.24 ×10⁻⁶ cm/s | 21% | 15.5 ×10⁻⁶ cm/s | 64 | Low (A-B Papp > 3.0 and Efflux Ratio > 10: Low) | ability to inhibit proliferation of RPMI cells (RPMI 8226): able to inhibit
CNCC(=O)NCCN1CCC(CCCN2c3ccccc3Sc3ccc(C(F)(F)F)cc32)CC1 [ICI-00849] | 11% | <1 ×10⁻⁶ cm/s | 26% | 5.1 ×10⁻⁶ cm/s | >5.1 | Low (A-B Papp > 3.0 and Efflux Ratio > 10: Low) | ability to inhibit proliferation of RPMI cells (RPMI 8226): able to inhibit
CC(=O)NCCN1CCC(CCCN2c3ccccc3Sc3ccc(C(F)(F)F)cc32)CC1 [ICI-00850] | 11% | 0.94 ×10⁻⁶ cm/s | 9% | 4.94 ×10⁻⁶ cm/s | 5.3 | Low (A-B Papp > 3.0 and Efflux Ratio > 10: Low) | 
FC(F)(F)c1ccc2c(c1)N(CCCCN1CCNCC1)c1ccccc1S2 [ICI-00890] | 15% | 0.75 ×10⁻⁶ cm/s | 29% | 8.6 ×10⁻⁶ cm/s | 11 | Low (A-B Papp > 3.0 and Efflux Ratio > 10: Low) | 
N#Cc1ccc2c(c1)N(CCCN1CCN(CCN)CC1)c1ccccc1S2 [ICI-00894] | 56% | 0.22 ×10⁻⁶ cm/s | 56% | 30 ×10⁻⁶ cm/s | 136 | Low (A-B Papp > 3.0 and Efflux Ratio > 10: Low) | 
OCCN1CCN(CCCN2c3ccccc3Sc3ccc(C(F)(F)F)cc32)CC1 [ICI-01175, Fluphenazine, reference compound] |  |  |  |  |  | High (A-B Papp > 3.0 and Efflux Ratio < 3.0: High) | Papp A→B ([1]; A-B direction): 8.7 ×10⁻⁶ cm/s; recovery ([1]; A-B direction, read-out: % Recovery A-B): 24%; Papp B→A ([1]; B-A direction): 9.63 ×10⁻⁶ cm/s; recovery ([1]; B-A direction, read-out: % Recovery B-A): 43%; efflux ratio ([1]; efflux ratio): 1.1
CNCC(=O)NCCCN1CCC(CCCN2c3ccccc3Sc3ccc(C(F)(F)F)cc32)CC1 [ICI-01259] | 29% | <0.29 ×10⁻⁶ cm/s | 39% | 12.5 ×10⁻⁶ cm/s | >43 | Low (A-B Papp > 3.0 and Efflux Ratio > 10: Low) | ability to inhibit proliferation of RPMI cells (RPMI 8226): able to inhibit
NCC(=O)NCCCN1CCC(CCCN2c3ccccc3Sc3ccc(C(F)(F)F)cc32)CC1 [ICI-01260] | 55% | 0.32 ×10⁻⁶ cm/s | 47% | 26.4 ×10⁻⁶ cm/s | 82 | Low (A-B Papp > 3.0 and Efflux Ratio > 10: Low) | ability to inhibit proliferation of RPMI cells (RPMI 8226; listed as ICI-1260): able to inhibit; also recorded: active
CN(C)CCCN1CCC(CCCN2c3ccccc3Sc3ccc(C(F)(F)F)cc32)CC1 [ICI-01505] | 3% | <0.36 ×10⁻⁶ cm/s | 26% | 0.64 ×10⁻⁶ cm/s | >1.8 | Low (A-B Papp > 3.0 and Efflux Ratio > 10: Low) | 
CC(C)NCC(O)c1ccc(O)c(O)c1 (stereo not drawn) [isoproterenol, reference compound] |  |  |  |  |  |  | relaxation of maximally contracted airway smooth muscle (human small airway; in the presence of 30 μM CCh, isoproterenol 10 μM): comparable degree of relaxation
